Data on 6 compounds can be found in patent publication US10653617B2, “Compositions of additives to ginger-curcumin to facilitate growth of fibroblasts and collagen” (priority 2016, dated 2020).

Data set [1] relates to Human dermal fibroblasts. Briefly: Fibroblast cytotoxicity assay. The class given is cell-based. To be noted: 72 hours; for growth-inhibition/cytotoxicity of the individual agent: agent tested individually over a wide range of concentrations; for concentration up to which non-toxic (all concentrations evaluated): agent tested individually, KBM, 1.5 mM calcium. As for the experimental part:
Human dermal fibroblasts were isolated from skin biopsies and grown in monolayer culture using DMEM supplemented with 10% fetal bovine serum as culture medium. Growth was at 37° C. in a humidified atmosphere containing 5% CO2 and 95% air. For experimental studies, cells were plated at 5×10^4 cells per well in wells of a 24-well culture dish in the same culture medium. One day later, cells were washed and the DMEM culture medium was replaced with KBM. Human dermal fibroblasts were treated with culture medium (KBM) supplemented with a concentration of calcium (1.5 mM) that supports fibroblast survival on its own. Reagents to be tested for cytotoxicity and/or growth inhibition were included in the culture medium and the cells incubated for 72 hours.

Data set [2] concerns Human dermal fibroblasts. The note with it: cited from earlier work.

Bounds are passed on as bounds.

Regarding `COc1cc(/C=C/C(=O)CC(=O)/C=C/c2ccc(O)c(OC)c2)ccc1O` [curcumin], the “growth-inhibition/cytotoxicity of the individual agent” value (“growth-inhibition/cytotoxicity” below) in the data set on Human dermal fibroblasts [1] is listed as “levels that produced growth-inhibition/cytotoxicity were achieved”. With hyaluronan, in the data set with Human dermal fibroblasts [1], the “concentration up to which non-toxic (all concentrations evaluated)” value is no more than 20000 ng/mL.

On to `O=C1O[C@H]([C@@H](O)CO)C(O)=C1O` [L-ascorbic acid], for which the “concentration up to which non-toxic (all concentrations evaluated)” value in the data set with Human dermal fibroblasts [1] is “up to 200 μg/mL”. With `CCCCCCCCCCCCOS(=O)(=O)[O-].[Na+]` [SLS, sodium lauryl sulfate], in the data set with Human dermal fibroblasts [1], the “growth-inhibition/cytotoxicity” value is given as “levels that produced growth-inhibition/cytotoxicity were achieved”.

Turning to `CS(C)(=O)=O` [MSM, dimethyl sulfone], in the data set with Human dermal fibroblasts [1], the “growth-inhibition/cytotoxicity” value is recorded as “levels that produced growth-inhibition/cytotoxicity were achieved”. `CC1=C(/C=C/C(C)=C/C=C/C(C)=C/C(=O)O)C(C)(C)CCC1` [ATRA, all-trans retinoic acid]: the “concentrations that are effective in this assay” value in the data set with Human dermal fibroblasts [2] is 1 to 10 µM.
